Results as given in ChEMBL document CHEMBL6087402, “Design, synthesis, and in vitro and in vivo biological evaluation of dihydroartemisinin derivatives as potent anti-cancer agents with ferroptosis-inducing and apoptosis-activating properties” (Eur J Med Chem, 2025).
pIC50: −log10 of the molar value. Activity calls are given as the source filed them. No cut-off for these calls is given here.

What was measured:
HCT-116 [1] = assay: Induction of apoptosis in human HCT-116 cells assessed as necrotic cells at 0.3 uM incubated for 72 hrs by Annexin V-FITC/PI staining based flow cytometry (reference value: 0.33 %); type: functional
[2] = Toxicity in BALB/c mouse assessed as difficulty in breathing at 100 mg/kg, ip administered continuously for 7 days; type: organism-based; conditions: in vivo, 168 h, time 7 day
[3] = Toxicity in BALB/c mouse assessed as apparent damage in kidney at 100 mg/kg, ip administered continuously for 7 days by H and E staining based analysis; type: organism-based; conditions: in vivo, 168 h, time 7 day
[4] = Anti-proliferative activity against human L02 cells incubated for 72 hrs by MTT assay; type: toxicity, cell-based
HCT-116 [5] = assay: Antitumor activity against human HCT-116 cells xenografted in mouse at 50 mg/kg, ip administered once in every 2 days for 21 days relative to control; type: functional; conditions: HCT-116, 504 h, time 21 day, read-out: TGI
HCT-116 [6] = assay: Induction of apoptosis in human HCT-116 cells assessed as increase in JNK level upto 3 uM incubated for 72 hrs by Western blot analysis; type: functional, cell-based
HCT-116 [7] = assay: Induction of apoptosis in human HCT-116 cells assessed as viable cells at 0.3 uM incubated for 72 hrs by Annexin V-FITC/PI staining based flow cytometry (reference value: 97.1 %); type: functional; conditions: read-out: Activity
SW-620 = assay: Anti-proliferative activity against human SW620 cells incubated for 72 hrs by MTT assay; type: functional, cell-based; conditions: SW-620, 72 h
HCT-116 [8] = assay: Induction of cell cycle arrest in human HCT-116 cells at G2/M phase assessed as increase in p53 level incubated for 72 hrs by Western blot analysis; type: functional, cell-based; conditions: dose <= 3.0 µM
[9] = Toxicity in BALB/c mouse assessed as apparent damage in lungs at 100 mg/kg, ip administered continuously for 7 days by H and E staining based analysis; type: organism-based; conditions: in vivo, 168 h, time 7 day
[10] = Toxicity in BALB/c mouse assessed as loss of appetite at 100 mg/kg, ip administered continuously for 7 days; type: organism-based; conditions: in vivo, 168 h, time 7 day
HCT-116 [11] = assay: Induction of apoptosis in human HCT-116 cells assessed as increase in Bax level upto 3 uM incubated for 72 hrs by Western blot analysis; type: functional, cell-based
HCT-116 [12] = assay: Induction of cell cycle arrest in human HCT-116 cells assessed as accumulation at G2/M phase at 3 uM incubated for 72 hrs by PI staining based flow cytometry (reference value: 15.79 %); type: functional
[13] = Toxicity in BALB/c mouse assessed as diarrhea at 100 mg/kg, ip administered continuously for 7 days; type: organism-based; conditions: in vivo, 168 h, time 7 day
[14] = Toxicity in BALB/c mouse assessed as apparent damage in heart at 100 mg/kg, ip administered continuously for 7 days by H and E staining based analysis; type: organism-based; conditions: in vivo, 168 h, time 7 day
HCT-116 [15] = assay: Induction of apoptosis in human HCT-116 cells assessed as early apoptotic cells at 0.3 uM incubated for 72 hrs by Annexin V-FITC/PI staining based flow cytometry (reference value: 1.55 %); type: functional
HCT-116 [16] = assay: Induction of apoptosis in human HCT-116 cells assessed as increase in cleaved caspase-3 level upto 3 uM incubated for 72 hrs by Western blot analysis; type: functional, cell-based
HCT-116 [17] = assay: Depletion of GSH in human HCT-116 cells assessed as reduction in GSH/GSSG ratio upto 3 uM incubated for 24 hrs; type: functional, cell-based
HCT-116 [18] = assay: Inhibition of cell proliferation in human HCT-116 cells incubated for 12 hrs by EdU assay; type: functional, cell-based; conditions: dose <= 3.0 µM
[19] = Toxicity in BALB/c mouse assessed as lethal dose administered intraperitoneally continuously for 7 days; conditions: in vivo, route ip, time 7 day
HCT-116 [20] = assay: Anti-proliferative activity against human HCT-116 cells assessed as inhibition of STAT3 phosphorylation upto 3 uM incubated for 72 hrs by Western blot analysis; type: functional, cell-based
[21] = Selectivity index, ratio of IC50 for human L02 cells to IC50 for human HCT-116 cells; type: toxicity; conditions: L02 cells versus HCT-116 cells, read-out: Ratio IC50
HCT-116 [22] = assay: Induction of apoptosis in human HCT-116 cells assessed as late apoptotic cells at 0.03 uM incubated for 72 hrs by Annexin V-FITC/PI staining based flow cytometry (reference value: 0.98 %); type: functional
HCT-116 [23] = assay: Induction of apoptosis in human HCT-116 cells assessed as increase in p38 level upto 3 uM incubated for 72 hrs by Western blot analysis; type: functional, cell-based
[24] = Selectivity index, ratio of IC50 for human L02 cells to IC50 for human A549 cells; type: toxicity; conditions: L02 cells versus A549 cells, read-out: Ratio IC50
HCT-116 [25] = assay: Inhibition of cell proliferation in human HCT-116 cells at 3 uM incubated for 12 hrs by EdU assay (reference value: 48.14 %); type: functional
[26] = Toxicity in BALB/c mouse assessed as animal death at 100 mg/kg, ip administered continuously for 7 days; type: organism-based; conditions: in vivo, 168 h, time 7 day
[27] = Selectivity index, ratio of IC50 for human L02 cells to IC50 for human Bel-7402 cells; type: toxicity; conditions: L02 cells versus Bel-7402 cells, read-out: Ratio IC50
HCT-116 [28] = assay: Induction of apoptosis in human HCT-116 cells assessed as necrotic cells at 0.03 uM incubated for 72 hrs by Annexin V-FITC/PI staining based flow cytometry (reference value: 0.33 %); type: functional
HCT-116 [29] = assay: Induction of apoptosis in human HCT-116 cells assessed as early apoptotic cells at 0.03 uM incubated for 72 hrs by Annexin V-FITC/PI staining based flow cytometry (reference value: 1.55 %); type: functional
HCT-116 [30] = assay: Antitumor activity against human HCT-116 cells xenografted in mouse assessed as reduction in cellular atypia at 50 mg/kg, ip administered once in every 2 days for 21 days by H and E staining based analysis; type: functional, organism-based; conditions: time 21.0 day
HCT-116 [31] = assay: Induction of apoptosis in human HCT-116 cells assessed as necrotic cells at 3 uM incubated for 72 hrs by Annexin V-FITC/PI staining based flow cytometry (reference value: 0.33 %); type: functional
HCT-116 [32] = assay: Induction of apoptosis in human HCT-116 cells assessed as decrease in Bcl-2 level upto 3 uM incubated for 72 hrs by Western blot analysis; type: functional, cell-based
HCT-116 [33] = assay: Induction of apoptosis in human HCT-116 cells assessed as early apoptotic cells at 3 uM incubated for 72 hrs by Annexin V-FITC/PI staining based flow cytometry (reference value: 1.55 %); type: functional
HCT-116 [34] = assay: Induction of intracellular ROS level in human HCT-116 cells upto 3 uM incubated for 24 hrs by DCFH-DA dye based analysis; type: functional, cell-based
HCT-116 [35] = assay: Induction of cell cycle arrest in human HCT-116 cells assessed as accumulation at G0/G1 phase at 0.03 uM incubated for 72 hrs by PI staining based flow cytometry (reference value: 80.71 %); type: functional
HCT-116 [36] = assay: Induction of lipid peroxidation in human HCT-116 cells upto 3 uM incubated for 24 hrs by confocal fluorescence microscopy; type: functional, cell-based
HCT-116 [37] = assay: Anti-proliferative activity against human HCT-116 cells incubated for 72 hrs by MTT assay; type: functional, cell-based; conditions: HCT-116, 72 h
[38] = Selectivity index, ratio of IC50 for human L02 cells to IC50 for human SW620 cells; type: toxicity; conditions: L02 cells versus SW620 cells, read-out: Ratio IC50

## C[C@@H]1CC[C@H]2[C@@H](C)C(OC(=O)Nc3ccc(Cl)cc3)O[C@@H]3O[C@@]4(C)CC[C@H]1[C@]32OO4 (some centres undefined)
HCT-116 [1]
  Activity: 0.071%
[2]
  Activity: Non-toxic
[3]
  Activity: Non-toxic
[4]
  IC50 at 72 h: 16800 nM
HCT-116 [5]
  inhibition in vivo at 50 mg/kg: ≤ 58.7%
HCT-116 [6]
  Activity: Active
HCT-116 [7]
  viability at 0.3 µM: 81.9%
SW-620
  pIC50: 6.22
HCT-116 [8]
  Activity: Dose-dependent-effect
[9]
  Activity: Non-toxic
[10]
  Activity: Non-toxic
HCT-116 [11]
  Activity: Active
HCT-116 [12]
  Activity: 33.23%
[13]
  Activity: Non-toxic
[14]
  Activity: Non-toxic
HCT-116 [15]
  Activity: 9.8%
HCT-116 [16]
  Activity: Active
HCT-116 [17]
  Activity: Active
HCT-116 [18]
  inhibition: Dose-dependent-effect
[19]
  LD50 at 168 h: > 100 mg/kg
HCT-116 [20]
  inhibition: Active
[21]
  selectivity ratio: 54.1
HCT-116 [22]
  Activity: 2.4%
HCT-116 [23]
  Activity: Active
[24]
  selectivity ratio: 16.8
HCT-116 [25]
  inhibition at 3 µM: 11.3%
[26]
  Activity: Non-toxic
[27]
  selectivity ratio: 2
HCT-116 [28]
  Activity: 0.22%
HCT-116 [29]
  Activity: 4.11%
HCT-116 [30]
  Activity: Active
HCT-116 [31]
  Activity: 0.026%
HCT-116 [32]
  Activity: Active
HCT-116 [33]
  Activity: 17%
HCT-116 [34]
  Activity: Active
HCT-116 [35]
  Activity: 49.21%
HCT-116 [36]
  Activity: Active
HCT-116 [37]
  pIC50: 6.51
[38]
  selectivity ratio: 28
